Results: PubChem BioAssay (NCI)
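Five compound concentrations were applied to cells in 96-well plates for 48 hours; endpoints were derived by simple linear interpolation of the resulting dose-response curve. GI50 is the concentration that inhibits growth by half. TGI is the concentration that stops growth completely.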

What was measured:
Assay in all cases: DTP human tumour cell line panel, 48 h
U251 CNS = system: U251 CNS
LOX IMVI melanoma = system: LOX IMVI melanoma
SF-539 CNS = system: SF-539 CNS
HCT-15 colon = system: HCT-15 colon
HCC-2998 colon = system: HCC-2998 colon
RXF 393 renal = system: RXF 393 renal
UACC-257 melanoma = system: UACC-257 melanoma
SNB-19 CNS = system: SNB-19 CNS
SK-MEL-5 melanoma = system: SK-MEL-5 melanoma
CCRF-CEM leukemia = system: CCRF-CEM leukemia
MCF7 breast = system: MCF7 breast
NCI-H460 lung = system: NCI-H460 lung
HT29 colon = system: HT29 colon
SK-OV-3 ovarian = system: SK-OV-3 ovarian
MDA-MB-468 breast = system: MDA-MB-468 breast
UACC-62 melanoma = system: UACC-62 melanoma
TK-10 renal = system: TK-10 renal
SN12C renal = system: SN12C renal
SW-620 colon = system: SW-620 colon
MALME-3M melanoma = system: MALME-3M melanoma
UO-31 renal = system: UO-31 renal
SR leukemia = system: SR leukemia
OVCAR-4 ovarian = system: OVCAR-4 ovarian
CAKI-1 renal = system: CAKI-1 renal
NCI-H23 lung = system: NCI-H23 lung
SF-295 CNS = system: SF-295 CNS
MOLT-4 leukemia = system: MOLT-4 leukemia
M14 melanoma = system: M14 melanoma
A549 NSCLC = system: A549 NSCLC

COc1cc(/C=N/NC(=O)c2ccc3nc(-c4ccc(Cl)cc4)[nH]c3c2)cc(OC)c1OC
GI50 (U251 CNS): 2.59 µM
TGI (U251 CNS): 5.9 µM
GI50 (LOX IMVI melanoma): 4.67 µM
TGI (LOX IMVI melanoma): 16.1 µM
GI50 (SF-539 CNS): 2.02 µM
TGI (SF-539 CNS): 6.98 µM
GI50 (HCT-15 colon): 73 µM
TGI (HCT-15 colon): > 100 µM
GI50 (HCC-2998 colon): 11.1 µM
TGI (HCC-2998 colon): 29.3 µM
GI50 (RXF 393 renal): 2.22 µM
TGI (RXF 393 renal): 9.02 µM
GI50 (UACC-257 melanoma): 4.67 µM
TGI (UACC-257 melanoma): 18.8 µM
GI50 (SNB-19 CNS): 3.42 µM
TGI (SNB-19 CNS): 10.5 µM
GI50 (SK-MEL-5 melanoma): 2.83 µM
TGI (SK-MEL-5 melanoma): 12.2 µM
GI50 (CCRF-CEM leukemia): 6.27 µM
TGI (CCRF-CEM leukemia): > 100 µM
GI50 (MCF7 breast): 0.663 µM
TGI (MCF7 breast): 12.5 µM
GI50 (NCI-H460 lung): 3.19 µM
TGI (NCI-H460 lung): 10.2 µM
GI50 (HT29 colon): 2.98 µM
TGI (HT29 colon): 15.5 µM
GI50 (SK-OV-3 ovarian): 15 µM
TGI (SK-OV-3 ovarian): 38.1 µM
GI50 (MDA-MB-468 breast): 3.27 µM
TGI (MDA-MB-468 breast): 10.1 µM
GI50 (UACC-62 melanoma): 1.24 µM
TGI (UACC-62 melanoma): 12.2 µM
GI50 (TK-10 renal): 28.8 µM
TGI (TK-10 renal): > 100 µM
GI50 (SN12C renal): 3.22 µM
TGI (SN12C renal): 11 µM
GI50 (SW-620 colon): 4.4 µM
TGI (SW-620 colon): 17.4 µM
GI50 (MALME-3M melanoma): 1.12 µM
TGI (MALME-3M melanoma): 3.36 µM
GI50 (UO-31 renal): > 100 µM
TGI (UO-31 renal): > 100 µM
GI50 (SR leukemia): 3.76 µM
TGI (SR leukemia): 19.1 µM
GI50 (OVCAR-4 ovarian): 2.35 µM
TGI (OVCAR-4 ovarian): 7.29 µM
GI50 (CAKI-1 renal): 11.2 µM
TGI (CAKI-1 renal): 30.8 µM
GI50 (NCI-H23 lung): 4.72 µM
TGI (NCI-H23 lung): 18.8 µM
GI50 (SF-295 CNS): 4.18 µM
TGI (SF-295 CNS): 15.9 µM
GI50 (MOLT-4 leukemia): 3.58 µM
TGI (MOLT-4 leukemia): 28.1 µM
GI50 (M14 melanoma): 3.77 µM
TGI (M14 melanoma): 21.1 µM
GI50 (A549 NSCLC): 7.55 µM
TGI (A549 NSCLC): 38.4 µM
